A value given as a limit tells only on which side of the number the result lay.

The IC50 is the concentration that inhibits the measured activity by half.

Transitional endoplasmic reticulum ATPase, sequence (P55072 whole entry): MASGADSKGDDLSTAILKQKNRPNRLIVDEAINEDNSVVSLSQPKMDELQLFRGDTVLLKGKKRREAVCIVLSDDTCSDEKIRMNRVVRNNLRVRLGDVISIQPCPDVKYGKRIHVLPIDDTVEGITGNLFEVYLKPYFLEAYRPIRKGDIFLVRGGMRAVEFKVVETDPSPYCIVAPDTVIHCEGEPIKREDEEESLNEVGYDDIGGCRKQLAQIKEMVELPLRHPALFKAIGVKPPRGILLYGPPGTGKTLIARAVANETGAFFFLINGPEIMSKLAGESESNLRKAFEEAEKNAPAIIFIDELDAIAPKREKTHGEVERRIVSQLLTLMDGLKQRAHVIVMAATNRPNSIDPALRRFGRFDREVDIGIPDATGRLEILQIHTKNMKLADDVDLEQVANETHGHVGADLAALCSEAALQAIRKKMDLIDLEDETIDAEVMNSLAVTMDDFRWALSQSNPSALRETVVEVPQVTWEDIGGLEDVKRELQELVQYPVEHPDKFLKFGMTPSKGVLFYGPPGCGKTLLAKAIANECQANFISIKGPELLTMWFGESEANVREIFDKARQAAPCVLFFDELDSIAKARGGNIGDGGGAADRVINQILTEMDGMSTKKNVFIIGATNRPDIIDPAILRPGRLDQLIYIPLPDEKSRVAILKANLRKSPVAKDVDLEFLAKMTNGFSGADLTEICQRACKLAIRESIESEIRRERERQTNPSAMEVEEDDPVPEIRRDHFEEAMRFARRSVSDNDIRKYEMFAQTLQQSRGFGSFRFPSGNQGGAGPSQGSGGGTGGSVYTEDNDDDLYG

The first assay addresses Transitional endoplasmic reticulum ATPase (Homo sapiens, UniProt P55072). Description: biochemical. It counts as cell-based.
Conditions: not given; call rule not given here
`Cc1cc(-c2ccccc2)nc(SCc2ccc(C(=O)O)cc2)n1` registered an IC50 of 4800 nM.
Take `Cc1cc(-c2ccccc2)nc(SCc2ccc(C(=O)NS(=O)(=O)C(F)(F)F)cc2)n1`: half-maximal inhibition (IC50) was put at 21600 nM.
On the same count and under the same terms, the value for `Cc1cc(-c2ccccc2)nc(SCc2ccccc2)n1` was over 37000 nM; that for `Cc1cc(-c2ccccc2)nc(SCCc2ccc(C(=O)O)cc2)n1` was 20500 nM; that for `Cc1cc(-c2ccccc2)nc(Sc2ccc(C(=O)O)cc2)n1` was over 37000 nM.
Still for that read-out and setting: for `Cc1cc(-c2ccccc2)nc(SCCC(=O)O)n1` the value was over 37000 nM.
In turn, `Cc1cc(-c2ccccc2)nc(S(=O)(=O)Cc2ccc(C(=O)O)cc2)n1` registered an IC50 of over 37000 nM.
On the same count and under the same terms, the value for `Cc1cc(-c2ccccc2)nc(NCc2ccc(C(=O)O)cc2)n1` was 15400 nM.
Same read-out and setting: for `Cc1cc(-c2ccccc2)nc(NCc2cccc(C(=O)O)c2)n1` the value was over 37000 nM; for `Cc1cc(-c2ccccc2)nc(NC[C@H]2CC[C@H](C(=O)O)CC2)n1`, 2600 nM; for `O=C(O)[C@H]1CC[C@H](CNc2nccc(-c3ccccc3)n2)CC1`, 8700 nM.
For the compound `Cc1cc(-c2ccccc2C)nc(NC[C@H]2CC[C@H](C(=O)O)CC2)n1`, the IC50 was over 37000 nM.
On the same count and under the same terms, the value for `COc1ccccc1-c1cc(C)nc(NC[C@H]2CC[C@H](C(=O)O)CC2)n1` was over 37000 nM; that for `Cc1cccc(-c2cc(C)nc(NC[C@H]3CC[C@H](C(=O)O)CC3)n2)c1` was 11400 nM; that for `Cc1cc(-c2cccc(Cl)c2)nc(NC[C@H]2CC[C@H](C(=O)O)CC2)n1` was 4800 nM.
The same measure, in the same setting: the value for `COc1cccc(-c2cc(C)nc(NC[C@H]3CC[C@H](C(=O)O)CC3)n2)c1` was over 37000 nM; that for `Cc1ccc(-c2cc(C)nc(NC[C@H]3CC[C@H](C(=O)O)CC3)n2)cc1` was 2700 nM.
On the same count and under the same terms, the value for `Cc1cc(-c2ccc(Cl)cc2)nc(NC[C@H]2CC[C@H](C(=O)O)CC2)n1` was 2600 nM; that for `Cc1cc(-c2ccc(F)cc2)nc(NC[C@H]2CC[C@H](C(=O)O)CC2)n1` was 8400 nM.
Regarding `COc1ccc(-c2cc(C)nc(NC[C@H]3CC[C@H](C(=O)O)CC3)n2)cc1`, the IC50 is over 37000 nM.
`O=C(O)[C@H]1CC[C@H](CNc2nc(-c3ccccc3)cc(-c3ccccc3)n2)CC1`: inhibition was half-maximal at 300 nM (IC50).
Still for that read-out and setting: the value for `Cc1ccccc1-c1cc(-c2ccccc2)nc(NC[C@H]2CC[C@H](C(=O)O)CC2)n1` was 673 nM; that for `O=C(O)[C@H]1CC[C@H](CNc2nc(-c3ccccc3)cc(-c3ccccc3F)n2)CC1` was 141 nM.
Turning to `O=C(O)[C@H]1CC[C@H](CNc2nc(-c3ccccc3)cc(-c3ccccc3Cl)n2)CC1`, half-maximal inhibition (IC50) was put at 700 nM.
The same measure, in the same setting: the value for `COc1ccccc1-c1cc(-c2ccccc2)nc(NC[C@H]2CC[C@H](C(=O)O)CC2)n1` was 3040 nM; that for `Cc1cccc(-c2cc(-c3ccccc3)nc(NC[C@H]3CC[C@H](C(=O)O)CC3)n2)c1` was 578 nM; that for `O=C(O)[C@H]1CC[C@H](CNc2nc(-c3ccccc3)cc(-c3cccc(F)c3)n2)CC1` was 552 nM.
Same read-out and setting: the value for `O=C(O)[C@H]1CC[C@H](CNc2nc(-c3ccccc3)cc(-c3cccc(Cl)c3)n2)CC1` was 483 nM; that for `COc1cccc(-c2cc(-c3ccccc3)nc(NC[C@H]3CC[C@H](C(=O)O)CC3)n2)c1` was 543 nM; that for `CS(=O)(=O)c1cccc(-c2cc(-c3ccccc3)nc(NC[C@H]3CC[C@H](C(=O)O)CC3)n2)c1` was 116 nM.
Compound `O=C(O)[C@H]1CC[C@H](CNc2nc(-c3ccccc3)cc(-c3cccc([N+](=O)[O-])c3)n2)CC1` had an IC50 of 201 nM.
In turn, `[N-]=[N+]=Nc1cccc(-c2cc(-c3ccccc3)nc(NC[C@H]3CC[C@H](C(=O)O)CC3)n2)c1` registered an IC50 of 879 nM.
Same read-out and setting: the value for `Cc1ccc(-c2cc(-c3ccccc3)nc(NC[C@H]3CC[C@H](C(=O)O)CC3)n2)cc1` was 577 nM; that for `O=C(O)[C@H]1CC[C@H](CNc2nc(-c3ccccc3)cc(-c3ccc(F)cc3)n2)CC1` was 742 nM; that for `O=C(O)[C@H]1CC[C@H](CNc2nc(-c3ccccc3)cc(-c3ccc(Cl)cc3)n2)CC1` was 221 nM.
Still for that read-out and setting: for `COc1ccc(-c2cc(-c3ccccc3)nc(NC[C@H]3CC[C@H](C(=O)O)CC3)n2)cc1` the value was 921 nM.
For `CS(=O)(=O)c1ccc(-c2cc(-c3ccccc3)nc(NC[C@H]3CC[C@H](C(=O)O)CC3)n2)cc1`, the IC50 was 1090 nM.
On the same count and under the same terms, for `O=C(O)[C@H]1CC[C@H](CNc2nc(-c3ccccc3)cc(-c3ccc([N+](=O)[O-])cc3)n2)CC1` the value was 2190 nM; for `Nc1ccc(-c2cc(-c3ccccc3)nc(NC[C@H]3CC[C@H](C(=O)O)CC3)n2)cc1`, 112 nM.
On the same count and under the same terms, the value for `Nc1ccc(-c2cc(-c3ccccc3)nc(NC[C@H]3CC[C@H](C(=O)O)CC3)n2)cc1[N+](=O)[O-]` was 60 nM; that for `O=C(O)[C@H]1CC[C@H](CNc2nc(-c3ccccc3)cc(-c3ccc4[nH]ccc4c3)n2)CC1` was 150 nM; that for `O=C(O)[C@H]1CC[C@H](CNc2nc(-c3ccccc3)cc(-c3ccco3)n2)CC1` was 570 nM.
On the same count and under the same terms, for `O=C(O)[C@H]1CC[C@H](CNc2nc(-c3ccccc3)cc(-c3cccnc3)n2)CC1` the value was 1200 nM; for `O=C(O)[C@H]1CC[C@H](CNc2nc(-c3ccccc3)cc(-c3ccncc3)n2)CC1`, 1670 nM.
As to `O=C(O)[C@H]1CC[C@H](CNc2nc(-c3ccccc3)cc(-c3ccoc3)n2)CC1`, the IC50 was found to be 2190 nM.
In turn, `O=C(O)[C@H]1CC[C@H](CNc2nc(Nc3ccccc3)cc(-c3ccccc3)n2)CC1` registered an IC50 of 36 nM.
Same read-out and setting: the value for `O=C(O)[C@H]1CC[C@H](CNc2nc(NC3CCCCC3)cc(-c3ccccc3)n2)CC1` was 4310 nM; that for `O=C(O)[C@H]1CC[C@H](CNc2nc(-c3ccccc3)cc(N3CCOCC3)n2)CC1` was over 10000 nM.
The same measure, in the same setting: for `Cc1ccccc1CNc1cc(-c2ccccc2)nc(NC[C@H]2CC[C@H](C(N)=O)CC2)n1` the value was 9290 nM; for `NC(=O)[C@H]1CC[C@H](CNc2nc(NCc3ccccc3F)cc(-c3ccccc3)n2)CC1`, 1690 nM.
The same measure, in the same setting: for `NC(=O)[C@H]1CC[C@H](CNc2nc(NCc3ccccc3Cl)cc(-c3ccccc3)n2)CC1` the value was 6940 nM; for `NC(=O)[C@H]1CC[C@H](CNc2nc(NCc3ccccc3Br)cc(-c3ccccc3)n2)CC1`, 7110 nM; for `COc1ccccc1CNc1cc(-c2ccccc2)nc(NC[C@H]2CC[C@H](C(N)=O)CC2)n1`, 8860 nM.
Compound `Cc1cccc(CNc2cc(-c3ccccc3)nc(NC[C@H]3CC[C@H](C(N)=O)CC3)n2)c1` came in with an IC50 of 1680 nM.
The same measure, in the same setting: the value for `NC(=O)[C@H]1CC[C@H](CNc2nc(NCc3cccc(F)c3)cc(-c3ccccc3)n2)CC1` was 474 nM; that for `NC(=O)[C@H]1CC[C@H](CNc2nc(NCc3cccc(Cl)c3)cc(-c3ccccc3)n2)CC1` was 2760 nM; that for `COc1cccc(CNc2cc(-c3ccccc3)nc(NC[C@H]3CC[C@H](C(N)=O)CC3)n2)c1` was 5640 nM.
On the same count and under the same terms, for `NC(=O)[C@H]1CC[C@H](CNc2nc(NCc3cccc([N+](=O)[O-])c3)cc(-c3ccccc3)n2)CC1` the value was 4610 nM; for `NC(=O)[C@H]1CC[C@H](CNc2nc(NCc3cccc(S(N)(=O)=O)c3)cc(-c3ccccc3)n2)CC1`, 7610 nM.
Same read-out and setting: for `Cc1ccc(CNc2cc(-c3ccccc3)nc(NC[C@H]3CC[C@H](C(N)=O)CC3)n2)cc1` the value was 2180 nM; for `NC(=O)[C@H]1CC[C@H](CNc2nc(NCc3ccc(F)cc3)cc(-c3ccccc3)n2)CC1`, 2430 nM; for `NC(=O)[C@H]1CC[C@H](CNc2nc(NCc3ccc(Cl)cc3)cc(-c3ccccc3)n2)CC1`, 3470 nM.
`COc1ccc(CNc2cc(-c3ccccc3)nc(NC[C@H]3CC[C@H](C(N)=O)CC3)n2)cc1` registered an IC50 of 5040 nM.
Same read-out and setting: the value for `NC(=O)[C@H]1CC[C@H](CNc2nc(NCc3ccc(S(N)(=O)=O)cc3)cc(-c3ccccc3)n2)CC1` was 5170 nM.
The same measure, in the same setting: the value for `CS(=O)(=O)c1ccc(CNc2cc(-c3ccccc3)nc(NC[C@H]3CC[C@H](C(N)=O)CC3)n2)cc1` was over 10000 nM; that for `CC(=O)c1ccc(-c2cc(NCc3ccccc3)nc(NC[C@H]3CC[C@H](C(N)=O)CC3)n2)cc1` was 102 nM.
On the same count and under the same terms, the value for `NC(=O)[C@H]1CC[C@H](CNc2nc(NCc3ccccc3)cc(-c3ccc(Cl)cc3)n2)CC1` was 106 nM.
`NC(=O)[C@H]1CC[C@H](CNc2nc(NCc3ccccc3)cc(-c3ccc(C(F)(F)F)cc3)n2)CC1` gave an IC50 of 222 nM.
Still for that read-out and setting: the value for `CCOc1ccc(-c2cc(NCc3ccccc3)nc(NC[C@H]3CC[C@H](C(N)=O)CC3)n2)cc1` was 246 nM; that for `NC(=O)[C@H]1CC[C@H](CNc2nc(NCc3ccccc3)cc(-c3ccc(F)cc3)n2)CC1` was 299 nM; that for `NC(=O)[C@H]1CC[C@H](CNc2nc(NCc3ccccc3)cc(-c3cc4ccccc4o3)n2)CC1` was 61 nM.
On the same count and under the same terms, the value for `NC(=O)[C@H]1CC[C@H](CNc2nc(NCc3ccccc3)cc(-c3ccc4[nH]ncc4c3)n2)CC1` was 71 nM; that for `NC(=O)[C@H]1CC[C@H](CNc2nc(NCc3ccccc3)cc(-c3csc4ccccc34)n2)CC1` was 74 nM; that for `NC(=O)[C@H]1CC[C@H](CNc2nc(NCc3ccccc3)cc(-c3ccc4[nH]ccc4c3)n2)CC1` was 82 nM.
Still for that read-out and setting: the value for `NC(=O)[C@H]1CC[C@H](CNc2nc(NCc3ccccc3)cc(-c3cccnc3)n2)CC1` was 109 nM; that for `NC(=O)[C@H]1CC[C@H](CNc2nc(NCc3ccccc3)cc(-c3ccsc3)n2)CC1` was 452 nM.
In the case of `NC(=O)[C@H]1CC[C@H](CNc2nc(NCc3ccccc3)cc(-c3ccoc3)n2)CC1`, the IC50 was found to be 491 nM.

Tested on in a further assay: not listed separately
Briefly: Inhibition of cell proliferation of human HCT116 cells after 72 hrs by thermostable firefly luciferase based assay. It counts as functional, HCT-116. The conditions noted are these: Homo sapiens, HCT-116, 72 h; read-out: IC50.
`CC(=O)c1ccc(-c2cc(NCc3ccccc3)nc(NC[C@H]3CC[C@H](C(N)=O)CC3)n2)cc1`: the IC50 is over 10000 nM.
Same read-out and setting: for `NC(=O)[C@H]1CC[C@H](CNc2nc(NCc3ccccc3)cc(-c3ccc(Cl)cc3)n2)CC1` the value was 7320 nM; for `NC(=O)[C@H]1CC[C@H](CNc2nc(NCc3ccccc3)cc(-c3ccc(C(F)(F)F)cc3)n2)CC1`, 7610 nM; for `CCOc1ccc(-c2cc(NCc3ccccc3)nc(NC[C@H]3CC[C@H](C(N)=O)CC3)n2)cc1`, 2230 nM.
Still for that read-out and setting: for `NC(=O)[C@H]1CC[C@H](CNc2nc(NCc3ccccc3)cc(-c3ccc(F)cc3)n2)CC1` the value was over 10000 nM.
Same read-out and setting: for `NC(=O)[C@H]1CC[C@H](CNc2nc(NCc3ccccc3)cc(-c3cc4ccccc4o3)n2)CC1` the value was 4640 nM; for `NC(=O)[C@H]1CC[C@H](CNc2nc(NCc3ccccc3)cc(-c3ccc4[nH]ncc4c3)n2)CC1`, 5720 nM; for `NC(=O)[C@H]1CC[C@H](CNc2nc(NCc3ccccc3)cc(-c3csc4ccccc34)n2)CC1`, 5820 nM.
For `NC(=O)[C@H]1CC[C@H](CNc2nc(NCc3ccccc3)cc(-c3ccc4[nH]ccc4c3)n2)CC1`, the IC50 worked out at 5640 nM.
Consider `NC(=O)[C@H]1CC[C@H](CNc2nc(NCc3ccccc3)cc(-c3cccnc3)n2)CC1`, for which the IC50 was over 10000 nM.
Still for that read-out and setting: for `NC(=O)[C@H]1CC[C@H](CNc2nc(NCc3ccccc3)cc(-c3ccsc3)n2)CC1` the value was 7410 nM.
Regarding `NC(=O)[C@H]1CC[C@H](CNc2nc(NCc3ccccc3)cc(-c3ccoc3)n2)CC1`, the IC50 amounted to 8750 nM.

Still in this assay, the particulars now being: hct-116.
`COC(=O)[C@H]1CC[C@H](CNc2nc(NCc3ccccc3)cc(-c3ccccc3)n2)CC1`: the IC50 entry was “Not Active”.

For the origin of these results see ChEMBL document CHEMBL3352358, “Discovery of 2-(cyclohexylmethylamino)pyrimidines as a new class of reversible valosine containing protein inhibitors” (J Med Chem, 2014).
